Measured values: patent publication US20070185149A1, “Novel amido-substituted hydroxy-6-phenylphenanthridines and their use as pde4 inhibtors” (ALTANA PHARMA AG, priority 2004, published 2007)

Molecular target: T1, PDE4B2 (Homo sapiens, UniProt Q07343)
T1 construct: made in house; host or cells: SF21 insect cells (baculovirus; virus prepared in SF9 cells)
Test: Inhibition of PDE4 activity: PDE4B2 [3H]cAMP SPA enzyme assay
Type: biochemical
Settings: recombinant PDE4B2 (SF21 cell supernatant), modified SPA test, 0.5 μM cAMP, 15 min at 37° C.; read-out: Inhibition of the PDE4 activity, −log IC50 (converted)
Procedure: The PDE4B2 (GB no. M97515) was a gift of Prof. M. Conti (Stanford University, USA). It was amplified from the original plasmid (pCMV5) via PCR with primers Rb9 (5′-[…]-3′) and Rb10 (5′-[…]-3′) and cloned into the pCR-Bac vector (Invitrogen, Groningen, NL).
The recombinant baculovirus was prepared by means of homologous recombination in SF9 insect cells.
The expression plasmid was cotransfected with Bac-N-Blue (Invitrogen, Groningen, NL) or Baculo-Gold DNA (Pharmingen, Hamburg) using a standard protocol (Pharmingen, Hamburg). Wt virus-free recombinant virus supernatant was selected using plaque assay methods. After that, high-titre virus supernatant was prepared by amplifying 3 times. PDE was expressed in SF21 cells by infecting 2×10^6 cells/ml with an MOI (multiplicity of infection) between 1 and 10 in serum-free SF900 medium (Life Technologies, Paisley, UK). The cells were cultured at 28° C. for 48-72 hours, after which they were pelleted for 5-10 min at 1000 g and 4° C.
The SF21 insect cells were resuspended, at a concentration of approx. 10^7 cells/ml, in ice-cold (4° C.) homogenization buffer (20 mM Tris, pH 8.2, containing the following additions: 140 mM NaCl, 3.8 mM KCl, 1 mM EGTA, 1 mM MgCl2, 10 mM β-mercaptoethanol, 2 mM benzamidine, 0.4 mM Pefablock, 10 μM leupeptin, 10 μM pepstatin A, 5 μM trypsin inhibitor) and disrupted by ultrasonication. The homogenate was then centrifuged for 10 min at 1000×g and the supernatant was stored at −80° C. until subsequent use (see below). The protein content was determined by the Bradford method (BioRad, Munich) using BSA as the standard.
PDE4B2 activity is inhibited by the said compounds in a modified SPA (scintillation proximity assay) test, supplied by Amersham Biosciences (see procedural instructions “phosphodiesterase [3H]cAMP SPA enzyme assay, code TRKQ 7090”), carried out in 96-well microtitre plates (MTP's). The test volume is 100 μl and contains 20 mM Tris buffer (pH 7.4), 0.1 mg of BSA (bovine serum albumin)/ml, 5 mM Mg^2+, 0.5 μM cAMP (including about 50,000 cpm of [3H]cAMP), 1 μl of the respective substance dilution in DMSO and sufficient recombinant PDE (1000×g supernatant, see above) to ensure that 10-20% of the cAMP is converted under the said experimental conditions. […] After a preincubation of 5 min at 37° C., the reaction is started by adding the substrate (cAMP) and the assay is incubated for a further 15 min; after that, it is stopped by adding SPA beads (50 μl). In accordance with the manufacturer's instructions, the SPA beads had previously been resuspended in water, but were then diluted 1:3 (v/v) in water; the diluted solution also contains 3 mM IBMX to ensure a complete PDE activity stop. After the beads have been sedimented (>30 min), the MTP's are analyzed in commercially available […]. The corresponding IC50 values of the compounds for the inhibition of PDE activity are determined from the concentration-effect curves by means of non-linear regression.

T1 sequence (Q07343 1-564 isoform Q07343-2): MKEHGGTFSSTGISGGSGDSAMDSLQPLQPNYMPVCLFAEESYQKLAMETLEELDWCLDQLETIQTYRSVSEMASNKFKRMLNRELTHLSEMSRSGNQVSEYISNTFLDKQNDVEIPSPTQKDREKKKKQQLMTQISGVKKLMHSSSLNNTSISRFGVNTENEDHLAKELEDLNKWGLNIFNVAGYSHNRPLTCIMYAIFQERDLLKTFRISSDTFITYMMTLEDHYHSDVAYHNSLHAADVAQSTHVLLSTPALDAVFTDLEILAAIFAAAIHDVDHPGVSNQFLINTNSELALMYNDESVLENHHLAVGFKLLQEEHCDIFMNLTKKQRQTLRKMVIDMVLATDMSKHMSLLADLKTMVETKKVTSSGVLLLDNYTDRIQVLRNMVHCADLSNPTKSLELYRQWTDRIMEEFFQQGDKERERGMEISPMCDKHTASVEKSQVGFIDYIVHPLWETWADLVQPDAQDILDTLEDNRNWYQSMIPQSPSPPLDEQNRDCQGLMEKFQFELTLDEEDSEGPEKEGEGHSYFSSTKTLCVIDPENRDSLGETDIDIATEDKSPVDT

Row | SMILES | IC50 [nM]
1 | COCCN(CCOC)C(=O)c1ccc(C2=N[C@@H]3CC[C@@H](O)C[C@@H]3c3cc(OC(F)F)c(OC)cc32)cc1 (racemic) [Compound 26, 4-[(2RS,4aRS,10bRS)-9-(1,1-Difluoro-methoxy)-2-hydroxy-8-methoxy-1,2,3,4,4a,10b-hexahydro-phenanthridin-6-yl]-N,N-bis(2-methoxy-ethyl)-benzamide] | 0.955 to 8.71
2 | COC(=O)CN(C)C(=O)c1ccc(C2=NC3CCC(O)CC3c3cc(OC)c(OC)cc32)cc1 (centres unmarked) [Compound 5] | 0.955 to 8.71
3 | COc1cc2c(cc1OC)[C@H]1C[C@H](O)CC[C@H]1N=C2c1ccc(C(=O)N2CCN(CCN3CCOCC3)CC2)cc1 (racemic) [Compound 9, 1-[4-((2RS,4aRS,10bRS)-2-Hydroxy-8,9-dimethoxy-1,2,3,4,4a,10b-hexahydro-phenanthridin-6-yl)-phenyl]-1-[4-(2-morpholin-4-yl-ethyl)-piperazin-1-yl]methanone] | 0.955 to 8.71
4 | COc1cc2c(cc1OC(F)F)[C@H]1C[C@H](O)CC[C@H]1N=C2c1ccc(C(=O)NCCCN2CCOCC2)cc1 (racemic) [Compound 28, 4-[(2RS,4aRS,10bRS)-9-(1,1-Difluoro-methoxy)-2-hydroxy-8-methoxy-1,2,3,4,4a,10b-hexahydro-phenanthridin-6-yl]-N-(3-morpholin-4-yl-propyl)-benzamide] | 0.955 to 8.71
5 | COc1cc2c(cc1OC)C1CC(O)CCC1N=C2c1ccc(C(=O)N2CCN(c3ccncc3)CC2)cc1 (centres unmarked) [Compound 18] | 0.955 to 8.71
6 | COc1cc2c(cc1OC)[C@H]1C[C@H](O)CC[C@H]1N=C2c1ccc(C(=O)N2CCOCC2)cc1 (racemic) [Compound 19, 1-[4-((2RS,4aRS,10bRS)-2-Hydroxy-8,9-dimethoxy-1,2,3,4,4a,10b-hexahydro-phenanthridin-6-yl)-phenyl]-1-morpholin-4-yl-methanone] | 0.955 to 8.71
7 | COc1cc2c(cc1OC)[C@H]1C[C@H](O)CC[C@H]1N=C2c1ccc(C(=O)N(C)C)cc1 (racemic) [Compound 14, 4-((2RS,4aRS,10bRS)-2-Hydroxy-8,9-dimethoxy-1,2,3,4,4a,10b-hexahydro-phenanthridin-6-yl)-N,N-dimethyl-benzamide] | 0.955 to 8.71
8 | COc1cc2c(cc1OC(F)F)[C@H]1C[C@H](O)CC[C@H]1N=C2c1ccc(C(=O)NC2CC2)cc1 (racemic) [Compound 25, N-Cyclopropyl-4-[(2RS,4aRS,10bRS)-9-(1,1-difluoro-methoxy)-2-hydroxy8-methoxy-1,2,3,4,4a,10b-hexahydro-phenanthridin-6-yl]-benzamide] | 0.955 to 8.71
9 | COc1cc2c(cc1OC)[C@H]1C[C@H](O)CC[C@H]1N=C2c1ccc(C(=O)N2CCN(CC(=O)N3CCCC3)CC2)cc1 (racemic) [Compound 12, 2-(4-{1-[4-((2RS,4aRS,10bRS)-2-Hydroxy-8,9-dimethoxy-1,2,3,4,4a,10b-hexahydro-phenanthridin-6-yl)-phenyl]-methanoyl}-piperazin-1-yl)-1-pyrrolidin-1-yl-ethanone] | 0.955 to 8.71
10 | COc1cc2c(cc1OC)[C@H]1C[C@H](O)CC[C@H]1N=C2c1ccc(C(=O)N2CCN(CC(=O)Nc3ccccn3)CC2)cc1 (racemic) [Compound 15, 2-(4-{1-[4-((2RS,4aRS,10bRS)-2-Hydroxy-8,9-dimethoxy-1,2,3,4,4a,10b-hexahydro-phenanthridin-6-yl)-phenyl]-methanoyl}-piperazin-1-yl)-N-pyridin-2-yl-acetamide] | 0.955 to 8.71
11 | COc1cc2c(cc1OC(F)F)[C@H]1C[C@H](O)CC[C@H]1N=C2c1ccc(C(=O)N2CCN(CCN(C)C)CC2)cc1 (racemic) [Compound 35, 1-{4-[(2RS,4aRS,10bRS)-9-(1,1-Difluoro-methoxy)-2-hydroxy-8-methoxy-1,2,3,4,4a,10b-hexahydro-phenanthridin-6-yl]-phenyl}-1-[4-(2-dimethylamino-ethyl)-piperazin-1-yl]-methanone] | 0.955 to 8.71
12 | COc1cc2c(cc1OC)[C@H]1C[C@H](O)CC[C@H]1N=C2c1ccc(C(=O)N2CCN(CC(=O)N3CCOCC3)CC2)cc1 (racemic) [Compound 17, 2-(4-{1-[4-((2RS,4aRS,10bRS)-2-Hydroxy-8,9-dimethoxy-1,2,3,4,4a,10b-hexahydro-phenanthridin-6-yl)-phenyl]-methanoyl}-piperazin-1-yl)-1-morpholin-4-yl-ethanone] | 0.955 to 8.71
13 | COc1cc2c(cc1OC(F)F)C1CC(O)CCC1N=C2c1ccc(C(=O)N2CCN(CC(=O)N(C)C)CC2)cc1 (stereo not drawn) [Compound 34, 2-[4-(1-{4-[(2RS,4aRS,10bRS)-9-(1,1-Difluoro-methoxy)-2-hydroxy-8-methoxy-1,2,3,4,4a,10bhexahydro-phenanthridin-6-yl]-phenyl}-methanoyl)-piperazin-1-yl]-N,N-dimethyl-acetamide] | 0.955 to 8.71

Further lines, results first:

Row | IC50 [nM] | SMILES
14 | 0.955 to 8.71 | COc1cc2c(cc1OC)[C@H]1C[C@H](O)CC[C@H]1N=C2c1ccc(C(=O)Nc2cnc3ccccc3c2)cc1 (racemic) [Compound 6, 4-((2RS,4aRS,10bRS)-2-Hydroxy-8,9-dimethoxy-1,2,3,4,4a,10b-hexahydro-phenanthridin-6-yl)-N-quinolin-3-yl-benzamide]
15 | 0.955 to 8.71 | COc1cc2c(cc1OC(F)F)[C@H]1C[C@H](O)CC[C@H]1N=C2c1ccc(C(=O)N(C)C)cc1 (racemic) [Compound 24, 4-[(2RS,4aRS,10bRS)-9-(1,1-Difluoro-methoxy)-2-hydroxy-8-methoxy-1,2,3,4,4a,10b-hexahydro-phenanthridin-6-yl]-N,N-dimethyl-benzamide]
16 | 0.955 to 8.71 | COc1cc2c(cc1OC)[C@H]1C[C@H](O)CC[C@H]1N=C2c1ccc(C(=O)N2CCN(CC(=O)Nc3cccnc3)CC2)cc1 (racemic) [Compound 13, 2-(4-{1-[4-((2RS,4aRS,10bRS)-2-Hydroxy-8,9-dimethoxy-1,2,3,4,4a,10b-hexahydro-phenanthridin-6-yl)phenyl]methanoyl}-piperazin-1-yl)-N-pyridin-3-yl-acetamide]
17 | 0.955 to 8.71 | COc1cc2c(cc1OC)[C@H]1C[C@H](O)CC[C@H]1N=C2c1ccc(C(=O)NC2CC2)cc1 (racemic) [Compound 11, N-Cyclopropyl-4-((2RS,4aRS,10bRS)-2-hydroxy-8,9-dimethoxy-1,2,3,4,4a,10b-hexahydro-phenanthridin-6-yl)-benzamide]
18 | 0.955 to 8.71 | COc1cc2c(cc1OC)C1CC(O)CCC1N=C2c1ccc(C(=O)N2CCN(CC(=O)N(C)C)CC2)cc1 [Compound 16, 2-(4-{1-[4-((2R,4aR,10bR)-2-Hydroxy-8,9-dimethoxy-1,2,3,4,4a,10b-hexahydro-phenanthridin-6-yiyphenyl]-methanoyl}-piperazin-1-yl)-N,N-dimethyl-acetamide]
19 | 0.955 to 8.71 | COc1cc2c(cc1OC)[C@H]1C[C@H](O)CC[C@H]1N=C2c1ccc(C(=O)NN2CCN(C)CC2)cc1 (racemic) [Compound 3, 4-((2RS,4aRS,10bRS)-2-Hydroxy-8,9-dimethoxy-1,2,3,4,4a,10b-hexahydro-phenanthridin-6-yl)-N-(4-methyl-piperazin-1-yl)benzamide]
20 | 0.955 to 8.71 | COc1cc2c(cc1OC)[C@H]1C[C@H](O)CC[C@H]1N=C2c1ccc(C(=O)NCCc2cccnc2)cc1 (racemic) [Compound 21, 4-((2RS,4aRS,10bRS)-2-Hydroxy-8,9-dimethoxy-1,2,3,4,4a,10b-hexahydro-phenanthridin-6-yl)-N-(2-pyridin-3-yl-ethyl)-benzamide]
